Source: PubChem BioAssay (NCI)
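A five-concentration, 48-hour dose response in 96-well plates underlies each endpoint, interpolated linearly between surrounding concentrations. TGI denotes the concentration required for complete inhibition of growth.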

Key:
Test in all cases: DTP human tumour cell line panel, 48 h
A549 NSCLC = tested on: A549 NSCLC
DLD-1 colon = tested on: DLD-1 colon
HCC-2998 colon = tested on: HCC-2998 colon
HCT-15 colon = tested on: HCT-15 colon
HL-60(TB) leukemia = tested on: HL-60(TB) leukemia
HOP-18 NSCLC = tested on: HOP-18 NSCLC
HT29 colon = tested on: HT29 colon
K-562 leukemia = tested on: K-562 leukemia
KM12 colon = tested on: KM12 colon
MALME-3M melanoma = tested on: MALME-3M melanoma
NCI-H226 lung = tested on: NCI-H226 lung
OVCAR-4 ovarian = tested on: OVCAR-4 ovarian
RPMI-8226 leukemia = tested on: RPMI-8226 leukemia
SF-268 CNS = tested on: SF-268 CNS
SF-539 CNS = tested on: SF-539 CNS
SK-MEL-28 melanoma = tested on: SK-MEL-28 melanoma
SN12C renal = tested on: SN12C renal
SW-620 colon = tested on: SW-620 colon
U251 CNS = tested on: U251 CNS
UO-31 renal = tested on: UO-31 renal

## COC(=O)c1nc(-c2ccc3c(n2)C(=O)C(N)=C(OC)C3=O)c(N)c(-c2ccc(OC)c(OC)c2O)c1C
A549 NSCLC
  TGI: 2.76 µM
DLD-1 colon
  TGI: 3.42 µM
HCC-2998 colon
  TGI: 0.221 µM
HCT-15 colon
  TGI: 2.68 µM
HL-60(TB) leukemia
  TGI: 6.32 µM
HOP-18 NSCLC
  TGI: 17.8 µM
HT29 colon
  TGI: 4.43 µM
K-562 leukemia
  TGI: 5.63 µM
KM12 colon
  TGI: 6.13 µM
MALME-3M melanoma
  TGI: 1.74 µM
NCI-H226 lung
  TGI: 1.41 µM
OVCAR-4 ovarian
  TGI: 3.06 µM
RPMI-8226 leukemia
  TGI: 3.6 µM
SF-268 CNS
  TGI: 5.25 µM
SF-539 CNS
  TGI: 1.39 µM
SK-MEL-28 melanoma
  TGI: 2.77 µM
SN12C renal
  TGI: 2.69 µM
SW-620 colon
  TGI: 6.88 µM
U251 CNS
  TGI: 2.37 µM
UO-31 renal
  TGI: 2.46 µM

## COc1ccc(C[C@H](N)C(=O)N2C[C@H](CO)C[C@H](n3cnc4c(N(C)C)ncnc43)C2)cc1
A549 NSCLC
  TGI: > 100 µM
DLD-1 colon
  TGI: > 100 µM
HCC-2998 colon
  TGI: > 100 µM
HCT-15 colon
  TGI: > 100 µM
HL-60(TB) leukemia
  TGI: > 100 µM
HOP-18 NSCLC
  TGI: > 100 µM
HT29 colon
  TGI: > 100 µM
K-562 leukemia
  TGI: > 100 µM
KM12 colon
  TGI: > 100 µM
MALME-3M melanoma
  TGI: > 100 µM
NCI-H226 lung
  TGI: > 100 µM
OVCAR-4 ovarian
  TGI: > 100 µM
RPMI-8226 leukemia
  TGI: > 100 µM
SF-268 CNS
  TGI: > 100 µM
SF-539 CNS
  TGI: > 100 µM
SK-MEL-28 melanoma
  TGI: > 100 µM
SN12C renal
  TGI: > 100 µM
SW-620 colon
  TGI: > 100 µM
U251 CNS
  TGI: > 100 µM
UO-31 renal
  TGI: > 100 µM

## COc1ccc(C[C@H](N)C(=O)N2C[C@H](CO)C[C@H](n3ccc(=O)[nH]c3=O)C2)cc1
A549 NSCLC
  TGI: > 100 µM
DLD-1 colon
  TGI: > 100 µM
HCC-2998 colon
  TGI: > 100 µM
HCT-15 colon
  TGI: > 100 µM
HL-60(TB) leukemia
  TGI: > 100 µM
HOP-18 NSCLC
  TGI: > 100 µM
HT29 colon
  TGI: > 100 µM
K-562 leukemia
  TGI: > 100 µM
KM12 colon
  TGI: > 100 µM
MALME-3M melanoma
  TGI: > 100 µM
NCI-H226 lung
  TGI: > 100 µM
OVCAR-4 ovarian
  TGI: > 100 µM
RPMI-8226 leukemia
  TGI: > 100 µM
SF-268 CNS
  TGI: > 100 µM
SF-539 CNS
  TGI: > 100 µM
SK-MEL-28 melanoma
  TGI: > 100 µM
SN12C renal
  TGI: > 100 µM
SW-620 colon
  TGI: > 100 µM
U251 CNS
  TGI: > 100 µM
UO-31 renal
  TGI: > 100 µM
